From patent US20250049029A1, “Agrochemical Compositions” (priority 2021, published 2025)

How the values were obtained:
[1] = Micrographic check for crystals after combining active ingredient with permeable S-metolachlor capsule suspension; type: physicochemical
Experimental: During further testing, Composition 2 was made with metribuzin being the only active ingredient (i.e., S-metolachlor and mesotrione were not present). An image, at 50-micron scale bar, is provided at FIG. 4A. To this formulation, the capsule suspension used in Composition 2 was added.
Further testing was done by replacing the metribuzin with sulfentrazone. In these tests sulfentrazone technical (powder, Dv(95)=307 microns) was added to a composition the CS of Composition 2 at a ratio of S-metolachlor:sulfentrazone of 10:0.8, and mixed for 1 hour at 30° C. to provide additional solubilization over room temperature.

[2] = Particle size and wet sieve residue of S-metolachlor CS mixed with sulfentrazone technical; type: physicochemical; details: single component, before mixing
Experimental: Additional testing was done using two jars with S-metolachlor CS of Composition 2 and 8% sulfentrazone technical at a ratio of […]. One was mixed at room temperature and one at 30° C. for 1 hour.

Compound | metribuzin crystals visible ([1]; Composition 2 made with metribuzin as only active ingredient, after adding the capsule suspension used in Composition 2, FIG. 4B) | Dv(50) [2] | Dv(95) [2] | sulfentrazone crystals observed ([1]; sulfentrazone technical added to CS of Composition 2, S-metolachlor:sulfentrazone 10:0.8, mixed 1 hour at 30° C., FIG. 5) | Dv(95) ([1]; sulfentrazone technical powder, before addition)
CSc1nnc(C(C)(C)C)c(=O)n1N [metribuzin, Metribuzin] | no metribuzin crystals appeared visible |  |  |  | 
Cc1nn(-c2cc(NS(C)(=O)=O)c(Cl)cc2Cl)c(=O)n1C(F)F [sulfentrazone, Sulfentrazone] |  | 30.3 | 307 | no sulfentrazone crystals were observed | 307 microns
